Experimental data as given in US20210068395A1, “METHODS OF APPLYING ONE OR MORE CERTAIN HETEROARYL-1,2,4-TRIAZOLE AND HETEROARYL-TETRAZOLE COMPOUNDS TO CONTROL DAMAGE ON PLANTS, PROPAGATION MATERIAL THEREOF, AND PLANT DERIVED PRODUCTS” (SYNGENTA CROP PROTECTION AG, priority 2018, published 2021).
Read-outs that look alike come from different tables or passages of the source.

Assays:
Type in all cases: in vivo
[1] = test system: Plutella xylostella (Diamond Back Moth); experiment: Plutella xylostella feeding/contact activity, 24-well artificial diet; details: 192 h, read-out: control in at least one of the two categories (mortality or growth inhibition)
Experimental: 24-well microtiter plates with artificial diet were treated with aqueous test solutions prepared from 10,000 ppm DMSO stock solutions by pipetting. After drying, Plutella eggs were pipetted through a plastic stencil onto a gel blotting paper and the plate was closed with it. The samples were assessed for mortality and growth inhibition in comparison to untreated samples 8 days after infestation.

[2] = test system: Diabrotica balteata (corn root worm); experiment: Diabrotica balteata (corn root worm), sprayed maize sprouts; details: 96 h, read-out: control in at least one of the two categories (mortality or growth inhibition)
Experimental: Maize sprouts placed onto an agar layer in 24-well microtiter plates were treated with aqueous test solutions prepared from 10,000 ppm DMSO stock solutions by spraying. After drying, the plates were infested with L2 larvae (6 to 8 per well). The samples were assessed for mortality and growth inhibition in comparison to untreated samples 4 days after infestation.

[3] = test system: Spodoptera littoralis (Egyptian Cotton Leaf Worm); experiment: Spodoptera littoralis feeding/contact activity; details: foliar, 72 h, read-out: control in at least one of the three categories (mortality or growth inhibition or anti-feeding)
Experimental: (§1) Cotton leaf discs were placed onto agar in 24-well microtiter plates and sprayed with aqueous test solutions prepared from 10,000 ppm DMSO stock solutions. After drying the leaf discs were infested with five L1 larvae. The samples were assessed for mortality, anti-feeding and growth inhibition 3 days after infestation.

[4] = test system: Euschistus heros (Neotropical Brown Stink Bug); experiment: Euschistus heros feeding/contact activity; details: 120 h, read-out: control in at least one of the two categories (mortality or growth inhibition)
Experimental: Soybean leaves on agar in 24-well microtiter plates were sprayed with aqueous test solutions prepared from 10,000 ppm DMSO stock solutions. After drying the leaves were infested with N2 nymphs. The samples were assessed for mortality and growth inhibition 5 days after infestation.

[5] = test system: Plutella xylostella (Diamond Back Moth); experiment: Plutella xylostella feeding/contact activity, 96-well artificial diet; details: 216 h, application rate 500 ppm, 9 days after infestation
Experimental: 1, 2, 3, 4, 17, 19, 23, 26, 39, 41, 42, 54, 55, 56 Plutella xylostella (Diamond Back Moth):Feeding/Contact Activity 96-well microtiter plates containing artificial diet were treated with aqueous test solutions, prepared from 10,000 ppm DMSO stock solutions, by a liquid handling robot. After drying, eggs (˜30 per well) were infested onto a netted lid which was suspended above the diet. The eggs hatch and L1 larvae move down to the diet. The samples were assessed for mortality 9 days after infestation.

[6] = test system: Thrips tabaci (Onion thrips); experiment: Thrips tabaci feeding/contact activity; details: foliar, 144 h, read-out: control in at least one of the two categories (mortality or anti-feeding)
Experimental: as §1, with “Sunflower” for “Cotton”, “on” for “onto”, “a thrips population of mixed ages.” for “five L1 larvae.”, “mortality, and” for “mortality,”, “6” for “and growth inhibition 3”

[7] = test system: Myzus persicae (Green Peach Aphid); experiment: Myzus persicae feeding activity (sucrose solution, Parafilm); details: 120 h, test rate 12.5 ppm, in sucrose solution, 5 days after infestation
Experimental: Test compounds prepared from 10,000 ppm DMSO stock solutions were applied by pipette into 24-well microtiter plates and mixed with sucrose solution. The plates were closed with a stretched Parafilm. A plastic stencil with 24 holes was placed onto the plate and infested pea seedlings were placed directly on the Parafilm. The infested plate was closed with a gel blotting paper and another plastic stencil and then turned upside down. The samples were assessed for mortality 5 days after infestation.

[8] = test system: Spodoptera littoralis (Egyptian Cotton Leaf Worm); experiment: Spodoptera littoralis systemic activity (lettuce); details: 144 h, test rate 12.5 ppm, root uptake in lettuce, 6 days after infestation, read-out: control in at least one of the three categories (mortality or growth inhibition or anti-feeding)
Text: Test compounds were applied by pipette prepared from 10,000 ppm DMSO stock solutions into 24-well plates and mixed with agar. Lettuce seeds were placed onto the agar and the multi well plate was closed by another plate which contained also agar. After 7 days the compound was absorbed by the roots and the lettuce grew into the lid plate. The lettuce leaves were then cut off into the lid plate. Spodoptera eggs were pipetted through a plastic stencil onto a humid gel blotting paper and the lid plate was closed with it. The samples were assessed for mortality, anti-feeding and growth inhibition 6 days after infestation.

[9] = test system: Myzus persicae (Green Peach Aphid); experiment: Myzus persicae feeding/contact activity; details: foliar, 144 h, application rate 200 ppm, sunflower leaf discs sprayed, 6 days after infestation
Experimental: Sunflower leaf discs were placed onto agar in a 24-well microtiter plate and sprayed with aqueous test solutions prepared from 10,000 ppm DMSO stock solutions. After drying, the leaf discs were infested with an aphid population of mixed ages. The samples were assessed for mortality 6 days after infestation.

[10] = test system: Myzus persicae (Green Peach Aphid); experiment: Myzus persicae systemic activity; details: 144 h, test rate 24 ppm, roots of pea seedlings in test solution, 6 days
Experimental: Roots of pea seedlings infested with an aphid population of mixed ages were placed directly into aqueous test solutions prepared from 10,000 DMSO stock solutions. The samples were assessed for mortality 6 days after placing seedlings into test solutions.

[11] = application rate 200 ppm, 24-well artificial diet, 8 days after infestation
[12] = application rate 200 ppm, L2 larvae, 4 days after infestation
[13] = application rate 200 ppm, L1 larvae on cotton leaf discs, 3 days after infestation
[14] = application rate 200 ppm, N2 nymphs on soybean leaves, 5 days after infestation
[15] = application rate 200 ppm, sunflower leaf discs, 6 days after infestation

C[C@@H](c1ncnn1-c1ncccn1)N(C)C(=O)c1cc(C(F)(F)F)cc(C(F)(F)F)c1 [Compound 6]
≥ 80%: percent control (mortality or growth inhibition) at 200 ppm [1, 11] | percent control (mortality or growth inhibition) at 200 ppm [2, 12] | percent control (mortality, anti-feedant effect or growth inhibition) at 200 ppm [3, 13]

CC(c1ncnn1-c1ncccn1)N(CC1CC1)C(=O)c1cncc(C(F)(F)F)c1 (stereo not shown) [Compound 47]
≥ 80%: percent control (mortality or growth inhibition) at 200 ppm [2, 12] | percent control (mortality or growth inhibition) at 200 ppm [4, 14] | mortality at 500 ppm [5]

COc1cnc(-n2ncnc2C(C)N(CC2CC2)C(=O)c2cc(C(F)(F)F)cc(C(F)(F)F)c2)nc1 (stereo not shown) [Compound 24]
≥ 80%: percent control (mortality or growth inhibition) at 200 ppm [1, 11] | percent control (mortality or growth inhibition) at 200 ppm [2, 12]

CC(c1ncnn1-c1ncccn1)N(CCC(F)(F)F)C(=O)c1cc(C(F)(F)F)cc(C(F)(F)F)c1 (stereo not shown) [Compound 55]
≥ 80%: percent control (mortality or growth inhibition) at 200 ppm [1, 11] | percent control (mortality or growth inhibition) at 200 ppm [2, 12] | percent control (mortality, anti-feedant effect or growth inhibition) at 200 ppm [6, 15] | percent control (mortality or growth inhibition) at 200 ppm [4, 14] | mortality at 500 ppm [5] | mortality at 12.5 ppm [7] | percent control (mortality, anti-feedant effect or growth inhibition) at 200 ppm [3, 13] | percent control (mortality, anti-feedant effect or growth inhibition) at 12.5 ppm [8] | mortality at 200 ppm [9]

CC(c1ncnn1-c1ccccn1)N(CC1COC1)C(=O)c1cc(C(F)(F)F)cc(C(F)(F)F)c1 (stereo not shown) [Compound 62]
≥ 80%: percent control (mortality or growth inhibition) at 200 ppm [2, 12]

CCOC(OCC)c1nc(C(C)NC(=O)c2cc(C(F)(F)F)cc(C(F)(F)F)c2)n(-c2ncccn2)n1 (stereo not shown) [Compound 8]
≥ 80%: percent control (mortality or growth inhibition) at 200 ppm [1, 11] | percent control (mortality or growth inhibition) at 200 ppm [2, 12] | mortality at 500 ppm [5]

CC(c1ncnn1-c1ncccn1)N(CC1CC1)C(=O)c1cccc(C#N)c1 (stereo not shown) [Compound 25]
≥ 80%: percent control (mortality or growth inhibition) at 200 ppm [2, 12]

CC(c1ncnn1-c1ncccn1)N(CCF)C(=O)c1cc(C(F)(F)F)cc(C(F)(F)F)c1 (stereo not shown) [Compound 56]
≥ 80%: percent control (mortality or growth inhibition) at 200 ppm [1, 11] | percent control (mortality or growth inhibition) at 200 ppm [2, 12] | percent control (mortality or growth inhibition) at 200 ppm [4, 14] | mortality at 500 ppm [5] | mortality at 12.5 ppm [7] | mortality at 24 ppm [10] | percent control (mortality, anti-feedant effect or growth inhibition) at 200 ppm [3, 13] | percent control (mortality, anti-feedant effect or growth inhibition) at 12.5 ppm [8] | mortality at 200 ppm [9]

CC(c1ncnn1-c1ncccn1)N(C[Si](C)(C)C)C(=O)c1cc(C(F)(F)F)cc(C(F)(F)F)c1 (stereo not shown) [Compound 16]
≥ 80%: percent control (mortality or growth inhibition) at 200 ppm [1] | percent control (mortality or growth inhibition) at 200 ppm [2] | percent control (mortality, anti-feedant effect or growth inhibition) at 200 ppm [6] | percent control (mortality or growth inhibition) at 200 ppm ([4]; in Glycine max) | percent control (mortality, anti-feedant effect or growth inhibition) at 200 ppm [3]

COC(=O)c1nc(C(C)NC(=O)c2cc(C(F)(F)F)cc(C(F)(F)F)c2)n(-c2ncccn2)n1 (stereo not shown) [Compound 7]
≥ 80%: percent control (mortality or growth inhibition) at 200 ppm [1, 11] | percent control (mortality or growth inhibition) at 200 ppm [2, 12] | percent control (mortality, anti-feedant effect or growth inhibition) at 200 ppm [6, 15] | mortality at 500 ppm [5] | percent control (mortality, anti-feedant effect or growth inhibition) at 200 ppm [3, 13]

CC(c1ncnn1-c1ncccn1)N(CC1CC1)C(=O)c1cc(C#N)cc(C(F)(F)F)c1 (stereo not shown) [Compound 42]
≥ 80%: percent control (mortality or growth inhibition) at 200 ppm [1, 11] | percent control (mortality or growth inhibition) at 200 ppm [2, 12] | percent control (mortality, anti-feedant effect or growth inhibition) at 200 ppm [6, 15] | percent control (mortality or growth inhibition) at 200 ppm [4, 14] | mortality at 500 ppm [5] | mortality at 12.5 ppm [7] | mortality at 24 ppm [10] | percent control (mortality, anti-feedant effect or growth inhibition) at 200 ppm [3, 13]

CC(c1ncnn1-c1ncccn1)N(CC1CC1)C(=O)c1cc(Br)cc(C(F)(F)F)c1 (stereo not shown) [Compound 19]
≥ 80%: percent control (mortality or growth inhibition) at 200 ppm [1, 11] | percent control (mortality or growth inhibition) at 200 ppm [2, 12] | percent control (mortality or growth inhibition) at 200 ppm [4, 14] | mortality at 500 ppm [5] | mortality at 12.5 ppm [7] | percent control (mortality, anti-feedant effect or growth inhibition) at 200 ppm [3, 13]

CC(c1ncnn1-c1ncccn1)N(CC1CC1)C(=O)c1cc(C(F)(F)F)nc(C(F)(F)F)c1 (stereo not shown) [Compound 41]
≥ 80%: percent control (mortality or growth inhibition) at 200 ppm [1, 11] | percent control (mortality or growth inhibition) at 200 ppm [2, 12] | percent control (mortality, anti-feedant effect or growth inhibition) at 200 ppm [6, 15] | percent control (mortality or growth inhibition) at 200 ppm [4, 14] | mortality at 500 ppm [5] | mortality at 12.5 ppm [7] | percent control (mortality, anti-feedant effect or growth inhibition) at 200 ppm [3, 13]

CC(c1ncnn1-c1ncccn1)N(CC1CC1)C(=O)c1cc(Cl)cc(C(F)(F)F)c1 (stereo not shown) [Compound 23]
≥ 80%: percent control (mortality or growth inhibition) at 200 ppm [1, 11] | percent control (mortality or growth inhibition) at 200 ppm [2, 12] | mortality at 500 ppm [5] | mortality at 12.5 ppm [7] | percent control (mortality, anti-feedant effect or growth inhibition) at 200 ppm [3, 13] | percent control (mortality, anti-feedant effect or growth inhibition) at 12.5 ppm [8]

CC(c1ncnn1-c1ncccn1)N(CCCF)C(=O)c1cc(C(F)(F)F)cc(C(F)(F)F)c1 (stereo not shown) [Compound 54]
≥ 80%: percent control (mortality or growth inhibition) at 200 ppm [1, 11] | percent control (mortality or growth inhibition) at 200 ppm [2, 12] | mortality at 12.5 ppm [7] | percent control (mortality, anti-feedant effect or growth inhibition) at 200 ppm [3, 13] | mortality at 200 ppm [9]
